Results taken from patent US20150276755A1, “METHODS FOR DETERMINING RESISTANCE AGAINST MOLECULES TARGETING PROTEINS” (AGENCY FOR SCIENCE, TECHNOLOGY AND RESEARCH, priority 2012, published 2015).
Entries after “also recorded” stand apart in the source; their conditions may differ.

Columns and labels:
[1] = biological target: T1, HDM2 Q24R-p53 interaction (Homo sapiens, UniProt Q00987, Q24R); assay: In vitro pull-down (co-immunoprecipitation, Western blot), HDM2 Q24R; assay type: biochemical; details: 10 μM
T1 construct: made in house; host or cells: cell-free in vitro transcription-translation (IVT)
Experimental: (§1) Protein G beads were incubated with anti-HA (1 μg per 10 μL beads) for 1 hour in PEST-3% BSA and subsequently washed twice in PBST-0.1% BSA. IVT-expressed protein was incubated with the beads on a rotator for 30 mins. […] IVT-containing secondary protein was added to the mixture and incubation allowed for 1 hour. Beads were finally washed thrice in PBST-0.1% BSA and thrice with PBS, and bound proteins eluted by resuspension in 20 μL SDS-PAGE loading buffer and incubation at 95° C. for 5 minutes. Where required, blank IVT extract (no template DNA added) was used as control. The eluates were subjected to electrophoresis, transferred to nitrocellulose membranes and probed for p53 with horseradish peroxidise conjugated DO1 antibody (Santa Cruz) or for HDM2 with anti-HA antibody followed by rabbit anti-mouse (Dakocytomation).
(§2) Protein G beads (Invitrogen) were incubated with anti-HA (1 μg per 10 μL beads) for 1 hour in PBST-3% BSA and subsequently washed twice in PBST-0.1% BSA. IVT expressed wild-type or mutant HDM2 was incubated with the beads on a rotator for 30 mins. […] IVT-expressed p53 was added to the mixture and incubation allowed for 1 hour. Beads were finally washed thrice in PBST-0.1% BSA and thrice with PBS, and bound proteins eluted by resuspension in 20 μL SDS-PAGE loading buffer and incubation at 95° C. for 5 minutes. […]

[2] = biological target: T2, HDM2 M62A-p53 interaction (Homo sapiens, UniProt Q00987, M62A); assay: In vitro pull-down (co-immunoprecipitation, Western blot), HDM2 M62A; assay type: biochemical; details: 10 μM
T2 construct: made in house; host or cells: cell-free in vitro transcription-translation (IVT)
Experimental: as §1, §2

[3] = biological target: T3, wild-type HDM2 (Homo sapiens, UniProt Q00987); assay: p53 reporter assay in p53/HDM2-null DKO cells, wild-type HDM2; assay type: cell-based; details: 20 μM
T3 construct: expressed in transfected cells; host or cells: H1299 p53-/- cells (A5); mouse embryonic fibroblast p53/Mdm2 double-knockout (DKO) cells (A7)
Experimental: (§3) DKO (p53/HDM2 null) cells were maintained in Dulbecco's modified Eagle's medium (DMEM) with 10% foetal calf serum (FCS) and 1% penicillin/streptomycin. The cells were seeded at 1.0×10^5 cells/well in 6-well plates, 24 hours prior to transfection. […] In all cases, the total amount of plasmid DNA transfected per well was equilibrated by addition of the parental vector pcDNA3.1a(+).
(§4) DKO cells were harvested 24 hours after transfection and […] activities were assessed using the Dual-light System (Applied Biosystems) according to the manufacturer's protocol. The β-galactosidase activity was normalized with luciferase activity for each sample. To check for expression levels of relevant proteins via Western blot, 2.5 μg of the cell lysates were subjected to electrophoresis, transferred to nitrocellulose membranes and probed for p53 with horseradish peroxidise conjugated DO1 antibody, for HDM2 and actin with anti-HA antibody and AC15 antibody respectively followed by rabbit anti-mouse.
(§5) Mouse embryonic fibroblast p53/Mdm2 double-knockout (DKO) cells (a kind gift from Guillermina Lozano) and H1299 p53^−/− cells were maintained in Dulbecco's modified Eagle's medium (DMEM) with 10% (v/v) foetal calf serum (FCS) and 1% (v/v) penicillin/streptomycin. The cells were seeded at 1.0×10^5 cells/well in 6-well plates, 24 hours prior to transfection. […]

[4] = biological target: T4, HDM2 M62A (Homo sapiens, UniProt Q00987, M62A); assay: p53 reporter assay in p53/HDM2-null DKO cells, HDM2 M62A; assay type: cell-based; details: 20 μM
T4 construct: expressed in transfected cells; host or cells: DKO mouse embryonic fibroblasts (A12); HCT116 p53+/+ (A28)
Experimental: as §3, §4, §5

[5] = biological target: T5, wild-type HDM2-p53 interaction (Homo sapiens, UniProt Q00987); assay: In vitro pull-down (co-immunoprecipitation, Western blot), wild-type HDM2; assay type: biochemical; details: 10 μM
T5 construct: made in house; host or cells: cell-free in vitro transcription-translation (IVT)
Experimental: as §1, §2

[6] = biological target: purified HDM2 (amino acids 1-125) P20L (human) (UniProt Q00987); assay: competitive fluorescence anisotropy against FAM-12-1 peptide, apparent Kd
[7] = biological target: purified HDM2 (amino acids 1-125) M62A (human) (UniProt Q00987); assay: as above
[8] = biological target: purified HDM2 (amino acids 1-125) Q24R (human) (UniProt Q00987); assay: as above
[9] = biological target: purified HDM2 (amino acids 1-125), wild-type (human) (UniProt Q00987); assay: as above
Chain of purified HDM2 (amino acids 1-125), wild-type (human) (Q00987 1-125 limits assumed): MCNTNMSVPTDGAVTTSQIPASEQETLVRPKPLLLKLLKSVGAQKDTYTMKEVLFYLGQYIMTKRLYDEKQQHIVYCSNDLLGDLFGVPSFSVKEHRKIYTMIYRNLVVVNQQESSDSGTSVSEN

T1 sequence (Q00987 whole entry Q24R): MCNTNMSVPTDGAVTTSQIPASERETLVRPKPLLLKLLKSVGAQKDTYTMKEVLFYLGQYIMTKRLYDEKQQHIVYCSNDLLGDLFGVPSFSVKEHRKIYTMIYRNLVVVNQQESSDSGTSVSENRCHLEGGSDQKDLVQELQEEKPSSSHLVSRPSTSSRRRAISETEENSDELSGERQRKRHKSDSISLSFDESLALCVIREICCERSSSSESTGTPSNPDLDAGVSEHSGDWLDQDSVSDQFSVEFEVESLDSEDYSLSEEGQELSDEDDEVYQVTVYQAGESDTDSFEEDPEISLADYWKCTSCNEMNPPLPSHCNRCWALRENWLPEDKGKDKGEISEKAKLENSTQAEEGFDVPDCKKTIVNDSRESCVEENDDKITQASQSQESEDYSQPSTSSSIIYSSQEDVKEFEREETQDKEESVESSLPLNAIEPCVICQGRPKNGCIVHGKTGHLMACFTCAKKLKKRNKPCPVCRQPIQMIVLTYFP
T2 sequence (Q00987 whole entry M62A): as the sequence (Q00987 whole entry Q24R) above, with R24Q, M62A counted along it
T5 sequence (Q00987 whole entry): as the sequence (Q00987 whole entry Q24R) above, with R24Q counted along it
T3 sequence (Q00987 whole entry): as the sequence (Q00987 whole entry Q24R) above, with R24Q counted along it
Chain of purified HDM2 (amino acids 1-125) Q24R (human) (Q00987 1-125 Q24R limits assumed): as the sequence (Q00987 1-125 limits assumed) above, with Q24R counted along it
Chain of purified HDM2 (amino acids 1-125) P20L (human) (Q00987 1-125 P20L limits assumed): as the sequence (Q00987 1-125 limits assumed) above, with P20L counted along it
T4 sequence (Q00987 whole entry M62A): as the sequence (Q00987 whole entry Q24R) above, with R24Q, M62A counted along it
Chain of purified HDM2 (amino acids 1-125) M62A (human) (Q00987 1-125 M62A limits assumed): as the sequence (Q00987 1-125 limits assumed) above, with M62A counted along it

Compound	effect on p53 binding to immobilised HDM2 (Western blot) [1]	effect on p53 binding to immobilised HDM2 (Western blot) [2]	p53 activity restored, of that seen in absence of HDM2 co-transfection [3] [%]	p53 activity restored, of that seen in absence of HDM2 co-transfection [4] [%]	effect on p53 binding to immobilised HDM2 (Western blot) [5]	Kd [6] [nM]	Kd [7] [nM]	Kd [8] [nM]	Kd [9] [nM]
CC(=O)N[C@H](C(=O)N[C@@H](CO)C(=O)N[C@@H](Cc1ccccc1)C(=O)N[C@]1(C)CCCCCCC=CCCC[C@@](C)(C(N)=O)NC(=O)[C@H](CC(C)C)NC(=O)[C@H](CC(C)C)NC(=O)[C@H](C)NC(=O)[C@H](Cc2c[nH]c3cc(Cl)ccc23)NC(=O)[C@H](Cc2ccc(O)cc2)NC(=O)[C@H](CCC(=O)O)NC1=O)[C@@H](C)O [MO11]	showed inhibition of p53 binding; also recorded: abrogate the mutant HDM2-p53 interaction as efficiently as Nutlin inhibits the wildtype HDM2-p53 interaction	showed inhibition of p53 binding; also recorded: abrogate the mutant HDM2-p53 interaction as efficiently as Nutlin inhibits the wildtype HDM2-p53 interaction	51	47	showed inhibition of p53 binding	–	–	–	–
p53 peptide	–	–	–	–	–	17.2	29.6	10.4	13.9
